Measurements: patent publication US20120149710A1, “SORTASE A INHIBITORS” (priority 2009, published 2012)
pEC50, pIC50, pKi: −log10 of the molar value. In brackets after ≈: the same amount, converted by molar mass. Entries after “also recorded” stand apart in the source; their conditions may differ.

Key:
[1] = biological target: B. anthracis sortase A enzyme (Bacillus anthracis, UniProt P0DPQ5); assay: cell-based; conditions: for EC50 (estimated from a single concentration): read-out: EC50 estimated from a single concentration
SrtA = SrtA (Staphylococcus aureus, UniProt Q2FV99); type: biochemical; conditions: inhibitor 10-fold above IC50, then rapid dilution
S. aureus strain Newman = assay: MIC by microtiter broth dilution method; type: cell-based; conditions: Staphylococcus aureus, read-out: MIC preventing S. aureus growth
S. aureus = S. aureus culture growth in the presence of 500 μM inhibitor; type: cell-based, Staphylococcus aureus; conditions: vs 2.5% DMSO control
[2] = biological target: Bacillus anthracis sortase enzyme (BaSrtA) (Bacillus anthracis, UniProt P0DPQ5); assay: biochemical
S. aureus SrtA = S. aureus SrtA (Staphylococcus aureus, UniProt Q2FV99); assay: FRET assay of SrtA-catalyzed hydrolysis of Abz-LPETG-Dap(Dnp); IC50 / Ki app; type: biochemical; conditions: for pIC50: purified enzyme, FRET, read-out: IC50 for inhibition of S. aureus SrtA; for pKi: read-out: Ki app (apparent dissociation constant of enzyme-inhibitor complex, Morrison's equation), S. aureus SrtA
[3] = test system: SrtA activity in whole cells, S. aureus strain RN4220; assay: Cell adhesion assay: whole cell adhesion to IgG coated plates (SrtA activity in whole cells); type: cell-based, Staphylococcus aureus; conditions: IgG coated microtiter plates

B. anthracis sortase A enzyme, sequence (P0DPQ5 whole entry, looked up): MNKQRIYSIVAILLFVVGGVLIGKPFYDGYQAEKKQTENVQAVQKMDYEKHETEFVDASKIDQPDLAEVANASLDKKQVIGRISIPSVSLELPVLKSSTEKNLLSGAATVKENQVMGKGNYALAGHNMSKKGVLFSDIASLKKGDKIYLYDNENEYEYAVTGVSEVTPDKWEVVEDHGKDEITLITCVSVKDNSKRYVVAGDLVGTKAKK
S. aureus SrtA, sequence (Q2FV99 60-206): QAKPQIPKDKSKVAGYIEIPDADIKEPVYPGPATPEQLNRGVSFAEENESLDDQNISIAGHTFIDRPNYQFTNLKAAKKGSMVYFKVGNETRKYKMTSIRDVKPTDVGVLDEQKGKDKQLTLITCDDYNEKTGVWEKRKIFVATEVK
Bacillus anthracis sortase enzyme (BaSrtA), sequence (P0DPQ5 whole entry, looked up): as the sequence (P0DPQ5 whole entry, looked up) above
SrtA, sequence (Q2FV99 60-206): as the sequence (Q2FV99 60-206) above

SMILES	EC50 (estimated from a single concentration) [1] [µM]	Effect on S. aureus growth in cell culture, in words (S. aureus)	pKi [2]	pIC50 (S. aureus SrtA)	pKi (S. aureus SrtA)	other results
CCOc1c(SSc2ccccn2)cnn(-c2cccc(F)c2)c1=O [2-59, 4-Ethoxy-2-(3-fluorophenyl)-5-(pyridin-2-yldisulfanyl)pyridazin-3(2H)-one]	> 8					
Cc1ccc(N2C(=O)/C(=C/c3cc([N+](=O)[O-])cc(Br)c3O)SC2=S)c(C)c1 [compound 1]		toxic				Enzyme activity recovered immediately after dilution (SrtA): 84%; MIC (S. aureus strain Newman): ~10 µM (≈ 4.65 µg/mL)
CCSc1c(S)cnn(-c2ccccc2)c1=O [compound 2-9]		do not significantly inhibit S. aureus growth; also recorded: not bactericidal; also recorded: do not impair microbial growth in cell culture	~6.52	5.85	5.85	Inhibition of S. aureus SrtA, potency in words (S. aureus SrtA): low micromolar
CCOc1c(SSc2ccccn2)cnn(-c2ccccc2)c1=O [compound 2-50, 4-Ethoxy-5-(2-pyridyldithio)-2-phenylpyridazin-3-one]	> 8				~7.52	Concentration giving near complete inhibition of sortase activity [1]: about 34 μM; pEC50 [1]: ~4.82
CC1=NN(c2ccccc2)C(=S)/C1=C/Nc1c(Br)cc(Br)cc1Br [compound 3-12]	> 28	do not substantially affect bacterial growth; also recorded: do not impair microbial growth in cell culture	5.77	6.52	6.52	Improvement of potency relative to lead 3 (S. aureus SrtA; 4-NO2 changed to 2,4,6-Br3): about 15 fold
Cc1oc(CN)nc1C(=O)c1nccs1 [compound 4]				5.14		Effect on SrtA-dependent adherence / protein display in whole cells [3]: potent effects; also recorded: inhibits protein display by SrtA in vivo
